# Earlier results in paper PMC12042267, “Expanding the Family of Monosubstituted 15-Membered Pyridine-Based Macrocyclic Ligands for Mn(II) Complexation in the Context of MRI” (Inorganic Chemistry, 2025).
# Read-outs that look alike come from different tables or passages of the source. Marks after values point to notes of the source that are not given here.
# Key:
# [1] = cited from earlier work
# [2] = Ca(II), cited from earlier work
# [3] = cited from earlier work; remark: listed apart in the source
# [4] = Zn(II), cited from earlier work
# [5] = Cu(II), cited from earlier work
# [6] = Mn(II) complex, cited from earlier work
# [7] = cited from earlier work; for r1 (relaxivity): 20 MHz
# [8] = cited from earlier work; remark: listed apart in the source
# [9] = Mn(II), I = 0.15 M NaCl, 25 °C ref 29
# [10] = Mn(II), I = 0.15 M NaCl, 25 °C ref 22
compound,measurement,setting,value
c1cc2nc(c1)CNCCOc1ccccc1OCCNC2 [15-pyN3O2Ph],log K1^H,"[1]; I = 0.15 M NaCl, 25 °C ref 29",8.53
same,log K2^H,"[1]; I = 0.15 M NaCl, 25 °C ref 29",7.63
same,log KML,"[2]; I = 0.15 M NaCl, 25 °C ref 29",1.85
same,log KML,[3]; [9],5.62
same,log KML(OH),[3]; [9],-10.50
same,pMn,"[3]; pH 7.4, cMn = clig = 10^–5 M ref 30",5.04^a
same,log KML,"[4]; I = 0.15 M NaCl, 25 °C ref 29",7.70
same,log KML(OH),"[4]; I = 0.15 M NaCl, 25 °C ref 29",-9.62
same,log KML,"[5]; I = 0.15 M NaCl, 25 °C ref 29",13.97
same,log KML(OH),"[5]; I = 0.15 M NaCl, 25 °C ref 29",-8.95
c1cc2nc(c1)CNCCOCCOCCNC2 [15-pyN3O2],log K1^H,[1]; 0.1 M NMe4Cl ref 28,8.82
same,log K2^H,[1]; 0.1 M NMe4Cl ref 28,7.80
same,log KML,[2]; 0.1 M NMe4Cl ref 28,2.04
same,log KML(OH),[2]; 0.1 M NMe4Cl ref 28,-11.92
same,log KML,"[3]; Mn(II), 0.1 M NMe4Cl ref 28",7.18
same,log KML(OH),"[3]; Mn(II), 0.1 M NMe4Cl ref 28",-11.69
same,pMn,"[3]; pH 7.4, cMn = clig = 10^–5 M ref 28",5.28
same,log KML,[4]; 0.1 M NMe4Cl ref 28,8.58
same,log KML(OH),[4]; 0.1 M NMe4Cl ref 28,-10.31
same,log KML,[5]; 0.1 M NMe4Cl ref 28,13.91
same,log KML(OH),[5]; 0.1 M NMe4Cl ref 28,-8.34
same,log KML(OH)2,[5]; 0.1 M NMe4Cl ref 28,-12.57
"O.O=C([O-])CN1CCOCCN(CC(=O)[O-])Cc2cccc(n2)C1.[Mn+2] [Mn(3,9-OPC2A)]",k0,[6]; Cu(II) transmetalation ref 26,(8.6 ± 1.1) × 10^–6 s^–1
same,r1p298,[7]; determined at pH 7.4 ref 26,3.09 mM^–1 s^–1
same,kex^298,[8],5.3 ± 0.4 10^7 s^–1
same,ΔH^‡,[8],28.5 ± 1.7 kJ mol^–1
O.O.[Mn+2].c1cc2nc(c1)CNCCOc1ccccc1OCCNC2 [Mn(15-pyN3O2Ph)],r1 (relaxivity),"[7]; 25 °C, 0.47 T ref 29",5.16/– mM^–1 s^–1
same,AO/ℏ,[8],43 10^6 rad s^–1
same,kex^298,[8],0.64 10^7 s^–1
same,ΔH^‡,[8],34.0 kJ mol^–1
same,ΔS^‡,[8],–1.0 J mol^–1K^–1
O.O.[Mn+2].c1cc2nc(c1)CNCCNCCNCCNC2 [Mn(15-pyN5)],r1 (relaxivity),"[7]; 25 °C, 0.47 T ref 28",3.56 mM^–1 s^–1
same,kex^298,[8],6.9 ± 0.7 10^7 s^–1
same,ΔH^‡,[8],37.7 ± 4 kJ mol^–1
O.O=C([O-])CN1CCOCCOCCNCc2cccc(n2)C1.[Mn+2] [MnL1],r1 (relaxivity),"[7]; 25 °C, 0.47 T ref 30",2.45 mM^–1 s^–1
same,r1 (relaxivity),"[7]; 37 °C, 0.47 T ref 30",2.08 mM^–1 s^–1
same,AO/ℏ,[8],38.6 10^6 rad s^–1
same,ErH,[8],15.0 ± 0.5 kJ mol^–1
same,kex^298,[8],0.45 ± 0.02 10^7 s^–1
same,ΔH^‡,[8],28.1 ± 2.1 kJ mol^–1
same,ΔS^‡,[8],–23 ± 6 J mol^–1K^–1
same,Δ^2,[8],160 ± 10 10^18 s^–2
same,τrH^298,[8],35 ± 5 ps
same,τv^298,[8],8 ± 1 ps
NCCN1CCN(CC(=O)O)Cc2cccc(n2)CN(CC(=O)O)CC1 [PC2A-EA],log K1^H,"[1]; I = 0.15 M NaCl, 25 °C ref 22",11.34
same,log K2^H,"[1]; I = 0.15 M NaCl, 25 °C ref 22",8.93
same,log K3^H,"[1]; I = 0.15 M NaCl, 25 °C ref 22",6.91
same,log K4^H,"[1]; I = 0.15 M NaCl, 25 °C ref 22",1.97
same,log KH2ML,[3]; [10],2.50
same,log KML,[3]; [10],19.01
same,log KHML,"[3]; Mn(II), I = 0.15 M NaCl, 25 °C, log KMnHL in Table 5 ref 22",6.88
same,pMn,"[3]; pH 7.4, cMn = clig = 10^–5 M ref 22",9.27
same,k1,[6]; Cu(II) transmetalation ref 22,0.6 M^–1 s^–1
same,dissociation half-life t1/2,"[6]; calculated for pH 7.4, Cu(II) ref 22",333 days
O.O.O.O.O.O.[Mn+2] [[Mn(H2O)6]^2+],r1 characteristic of free hexaaqua Mn(II),"[7]; 1.41 T, 60 MHz, 25 °C ref 46",6.7 mM^–1 s^–1
same,r1 (relaxivity),"[7]; 25 °C, 0.47 T ref 54",8.36/– mM^–1 s^–1
same,AO/ℏ,[8],33.3 10^6 rad s^–1
same,kex^298,[8],2.1 10^7 s^–1
same,ΔH^‡,[8],32.9 kJ mol^–1
same,ΔS^‡,[8],+5.7 J mol^–1K^–1
same,Δ^2,[8],5.6 10^18 s^–2
same,τrH^298,[8],30 ps
same,τv^298,[8],3.3 ps
O.O=C([O-])CN1CCNCc2cccc(n2)CNCC1.[Mn+2] [[Mn(PC1A)(H2O)]^+],r1p298,[7]; determined at pH 7.4 ref 20,2.39 mM^–1 s^–1
same,kex^298,[8],303 ± 19 10^7 s^–1
same,ΔH^‡,[8],13.0 ± 1.6 kJ mol^–1
O.O=P([O-])([O-])CN1CCNCc2cccc(n2)CNCC1.[Mn+2] [[Mn(PC1P)(H2O)]],r1p298,[7]; determined at pH 7.4 ref 20,2.84 mM^–1 s^–1
same,kex^298,[8],177 ± 9 10^7 s^–1
same,ΔH^‡,[8],14.0 ± 1.2 kJ mol^–1
O.O=C([O-])CN1CCN(Cc2ccc(-c3ccccc3)cc2)CCN(CC(=O)[O-])Cc2cccc(n2)C1.[Mn+2] [[Mn(PC2A-BP)(H2O)]],r1p298,[7]; determined at pH 7.4 ref 29,4.96 mM^–1 s^–1
same,r1p298,[7]; measured in the presence of HSA ref 55,35.7 mM^–1 s^–1
same,kex^298,"[8]; Table 7, footnote h ref 29",6.3 ± 0.2 10^7 s^–1
same,ΔH^‡,"[8]; Table 7, footnote h ref 29",35.7 ± 0.1 kJ mol^–1
NCCN1CCN(CC(=O)[O-])Cc2cccc(n2)CN(CC(=O)[O-])CC1.O.[Mn+2] [[Mn(PC2A-EA)(H2O)]],r1p298,"[7]; 298 K and 0.47 T, pH 6.0 ref 22",2.1 mM^–1 s^–1
same,r1p298,"[7]; 298 K and 0.47 T, pH 7.4 ref 22",3.5 mM^–1 s^–1
same,kex^298,[8],4.0 ± 0.2 10^7 s^–1
